Like-named read-outs stand apart in the source and are kept apart here.
Experiments:
M1 muscarinic receptor = molecular target: T1, M1 muscarinic receptor (Homo sapiens, UniProt P11229); assay: Functional mobilization of intracellular calcium (FLIPR) in M1-CHO cells; type: cell-based
T1 construct: expressed in transfected cells; host or cells: CHO (M1-CHO)
T1 sequence (P11229 1-460): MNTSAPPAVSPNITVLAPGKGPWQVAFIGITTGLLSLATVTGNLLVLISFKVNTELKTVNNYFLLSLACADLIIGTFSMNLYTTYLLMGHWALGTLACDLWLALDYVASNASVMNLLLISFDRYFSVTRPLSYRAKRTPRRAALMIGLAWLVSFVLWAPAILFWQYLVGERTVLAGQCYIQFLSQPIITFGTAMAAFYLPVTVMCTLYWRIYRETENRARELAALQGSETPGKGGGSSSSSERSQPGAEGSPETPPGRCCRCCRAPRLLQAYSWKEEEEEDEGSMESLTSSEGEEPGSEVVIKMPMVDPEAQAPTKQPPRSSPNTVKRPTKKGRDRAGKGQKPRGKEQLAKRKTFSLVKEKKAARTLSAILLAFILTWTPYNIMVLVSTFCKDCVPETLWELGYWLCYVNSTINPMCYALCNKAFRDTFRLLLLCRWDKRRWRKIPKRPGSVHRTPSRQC
Method in brief: (§1)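 CHO cells stably expressing human M1 or M4 receptor were loaded with Fluo-3 AM (or Calcium 3 dye) in Hepes-buffered saline, pH 7.4, with 1 mM probenecid, 0.5% final DMSO. Agonist mode: compound added directly; antagonist mode: 15 min preincubation before carbachol at EC80. FLIPR fluorescence recorded 60 sec.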

M4 muscarinic receptor = molecular target: T2, M4 muscarinic receptor (Homo sapiens, UniProt P08173); assay: Functional mobilization of intracellular calcium (FLIPR) in M4-CHO cells; type: cell-based
T2 construct: expressed in transfected cells; host or cells: CHO (M4-CHO)
T2 sequence (P08173 1-479): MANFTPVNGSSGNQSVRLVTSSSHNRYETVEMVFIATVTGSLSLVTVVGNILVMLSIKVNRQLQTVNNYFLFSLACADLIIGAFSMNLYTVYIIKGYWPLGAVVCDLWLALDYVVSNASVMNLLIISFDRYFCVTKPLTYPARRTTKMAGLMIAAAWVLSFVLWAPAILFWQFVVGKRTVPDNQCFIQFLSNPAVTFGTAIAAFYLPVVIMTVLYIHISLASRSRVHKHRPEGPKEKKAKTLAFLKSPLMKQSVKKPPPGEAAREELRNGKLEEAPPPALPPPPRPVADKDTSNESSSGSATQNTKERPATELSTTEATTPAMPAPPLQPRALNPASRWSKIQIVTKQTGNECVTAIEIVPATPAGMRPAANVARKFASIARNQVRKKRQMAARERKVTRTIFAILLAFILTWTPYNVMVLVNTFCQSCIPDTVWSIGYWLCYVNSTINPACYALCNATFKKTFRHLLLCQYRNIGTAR
Method in brief: as §1

[1] = M1-CHO cells, calcium mobilization (FLIPR)
[2] = M1-CHO cells, calcium mobilization (FLIPR), read-out: M1 Efficacy
[3] = M4-CHO cells, calcium mobilization (FLIPR)
[4] = M4-CHO cells, calcium mobilization (FLIPR), read-out: M4 Efficacy
[5] = Table 4, 100% efficacy is the maximum response obtained with the Carbachol control
[6] = Table 4, modulating M1 receptor
[7] = Table 4, modulating M4 receptor
[8] = Table 4, M1 receptor, calcium mobilization (FLIPR)
[9] = Table 4, M4 receptor, calcium mobilization (FLIPR)
[10] = M1 receptor, calcium mobilization
[11] = M1 receptor, calcium mobilization, read-out: M1 Efficacy
[12] = M4 receptor, calcium mobilization
[13] = M4 receptor, calcium mobilization, read-out: M4 Efficacy
[14] = 100% efficacy is the maximum response obtained with the Carbachol control, Table 5

| Compound | Emax (M1 muscarinic receptor; [5]) | M1 Activity (M1 muscarinic receptor; [6]) | Emax (M4 muscarinic receptor; [5]) | M4 Activity (M4 muscarinic receptor; [7]) | M1 Activity (M1 muscarinic receptor; [10]) | Emax (M1 muscarinic receptor; [11]) | M4 Activity (M4 muscarinic receptor; [12]) | Emax (M4 muscarinic receptor; [13]) | also measured |
| --- | --- | --- | --- | --- | --- | --- | --- | --- | --- |
| CCOC(=O)N1CCC(N2CCC3(CC2)CN(C(C)=O)c2c(F)cccc23)CC1 [compound 381] | – | – | – | – | – | – | – | – | EC50 (M1 muscarinic receptor; [1]): < 100 nM; Emax (M1 muscarinic receptor; [2]): 65 to 85%; EC50 (M4 muscarinic receptor; [3]): > 1000 nM; Emax (M4 muscarinic receptor; [4]): < 65% |
| CCOC(=O)N1C2CCC1CC(N1CCC3(CC1)CN(C(=O)OC1CCC1)c1ccc(F)cc13)C2 (centres unmarked) [compound 409] | – | – | – | – | – | – | – | – | EC50 (M1 muscarinic receptor; [1]): < 100 nM; Emax (M1 muscarinic receptor; [2]): > 85%; EC50 (M4 muscarinic receptor; [3]): < 100 nM; Emax (M4 muscarinic receptor; [4]): > 85% |
| CC(=O)N1CC2(CCN(C3CCN(c4cncc(-c5ccccc5C)n4)CC3)CC2)c2ccccc21 [compound 678] | 25 to 100% | xxx (activity was measured to be less than 2.0 μM) | < 25% | x (activity was measured to be greater than 5.0 μM) | – | – | – | – | – |
| O=C(N[C@H]1CC2(CCN(C3CC4CC[C@@H]3C4)CC2)c2ccccc21)N1CCOCC1 (some centres unmarked) [compound 979] | 25 to 100% | – | 25 to 100% | – | – | – | – | – | M1 Activity (M1 muscarinic receptor; [8]): x (activity was measured to be greater than 5.0 μM); M4 Activity (M4 muscarinic receptor; [9]): xxx (activity was measured to be less than 2.0 μM) |
| COC(=O)N1CCCC(N2CCC3(CC2)CN(C(C)=O)c2ccc(F)cc23)CC1 (centres unmarked) [compound 132] | – | – | – | – | xxx (activity was measured to be less than 0.1 μM) | > 85% | xxx (activity was measured to be less than 0.1 μM) | > 85% | – |
| COCCOC(=O)N1CC[C@@H](CN2CCC3(CC2)CN(C(C)=O)c2ccccc23)C1 [compound 459] | 25 to 100% | x (activity was measured to be greater than 5.0 μM) | < 25% | xx (activity was measured to be between 2.0 μM and 5.0 μM) | – | – | – | – | – |
| CN(C)C(=O)N1CC2(CCN(C[C@H]3CCN(c4cnccn4)C3)CC2)c2cc(F)ccc21 [compound 1035] | – | – | – | – | – | – | – | – | Emax (M1 muscarinic receptor; [14]): > 100%; EC50 (M1 muscarinic receptor; CHO cells expressing M1, calcium mobilization, Table 5): < 2000 nM; Emax (M4 muscarinic receptor; [14]): 25 to 100%; EC50 (M4 muscarinic receptor; CHO cells expressing M4, calcium mobilization, Table 5): < 2000 nM |
| CCOC(=O)N1CCC(N2CCC3(CC2)CN(C(C)=O)c2ccc(S(C)(=O)=O)cc23)CC1 [compound 719] | 25 to 100% | xxx (activity was measured to be less than 2.0 μM) | < 25% | x (activity was measured to be greater than 5.0 μM) | – | – | – | – | – |
| CC(=O)N1CC2(CCN(C3CCN(C(=O)OCCF)CC3)CC2)c2cc(F)ccc21 [compound 172] | – | – | – | – | x (activity was measured to be greater than 1.0 μM) | > 85% | x (activity was measured to be greater than 1.0 μM) | 65 to 85% | – |
| CC(=O)N[C@H]1CC2(CCN(C3CCOCC3)CC2)c2ccccc21 [compound 206] | – | – | – | – | xxx (activity was measured to be less than 0.1 μM) | 65 to 85% | x (activity was measured to be greater than 1.0 μM) | < 65% | – |
| CCCOC(=O)N1CCC(N2CCC3(CC2)CN(C(C)=O)c2ccc(F)cc23)CC1 [compound 79] | – | – | – | – | xx (activity was measured to be between 0.1 μM and 1.0 μM) | < 65% | x (activity was measured to be greater than 1.0 μM) | < 65% | – |
| CN(C)C(=O)N[C@H]1CCC2(CCN(C3CC4CCC(C4)C3)CC2)c2ccccc21 (some centres unmarked) [compound 468] | 25 to 100% | xx (activity was measured to be between 2.0 μM and 5.0 μM) | 25 to 100% | xxx (activity was measured to be less than 2.0 μM) | – | – | – | – | – |
| CC(=O)NC1CC2(CCN(C3CC4CCC3C4)CC2)c2ccccc21 (centres unmarked) [compound 291] | – | – | – | – | xx (activity was measured to be between 0.1 μM and 1.0 μM) | 65 to 85% | x (activity was measured to be greater than 1.0 μM) | 65 to 85% | – |
| CC(=O)N1CC2(CCN(C3CCN(c4cnccn4)CC3)CC2)c2ccccc21 [compound 505] | 25 to 100% | xxx (activity was measured to be less than 2.0 μM) | 25 to 100% | xxx (activity was measured to be less than 2.0 μM) | – | – | – | – | – |
| CCOC(=O)N[C@H]1CC2(CCN(C[C@H]3C[C@H]4CC[C@H]3C4)CC2)c2ccccc21 [compound 326] | – | – | – | – | x (activity was measured to be greater than 1.0 μM) | < 65% | x (activity was measured to be greater than 1.0 μM) | < 65% | – |
| CCOC(=O)N1CCC(N2CCC3(CC2)CN(C(=O)C(C)(C)C)c2ccc(F)cc23)CC1 [compound 282] | – | – | – | – | xxx (activity was measured to be less than 0.1 μM) | < 65% | xx (activity was measured to be between 0.1 μM and 1.0 μM) | 65 to 85% | – |
| O=C(N[C@H]1CC2(CCN(C3CCCCC3)CC2)c2ccccc21)c1ccoc1 [compound 801] | < 25% | x (activity was measured to be greater than 5.0 μM) | < 25% | x (activity was measured to be greater than 5.0 μM) | – | – | – | – | – |
| CCOC(=O)N1CCC(N2CCC3(CC2)CN(C(C)=O)c2c(C)cccc23)CC1 [compound 509] | 25 to 100% | xx (activity was measured to be between 2.0 μM and 5.0 μM) | 25 to 100% | x (activity was measured to be greater than 5.0 μM) | – | – | – | – | – |
| O=C(O)C1CC2(CCN(CC3CCCCC3)CC2)c2ccccc21 (centres unmarked) [compound 803] | < 25% | – | < 25% | – | – | – | – | – | M1 Activity (M1 muscarinic receptor; [8]): x (activity was measured to be greater than 5.0 μM); M4 Activity (M4 muscarinic receptor; [9]): x (activity was measured to be greater than 5.0 μM) |
| CCOC(=O)N1CCC(N2CCC3(CC2)CN(C(C)=O)c2ccc(-c4ccsc4)cc23)CC1 [compound 165] | – | – | – | – | x (activity was measured to be greater than 1.0 μM) | 65 to 85% | x (activity was measured to be greater than 1.0 μM) | > 85% | – |
| CCOC(=O)N1CCC(N2CCC3(CC2)CN(C(C)=O)c2cccc(C(F)(F)F)c23)CC1 [compound 615] | 25 to 100% | xxx (activity was measured to be less than 2.0 μM) | < 25% | xx (activity was measured to be between 2.0 μM and 5.0 μM) | – | – | – | – | – |
| CC(=O)N1CC2(CCN(C3CCN(C(=O)OC4CCOC4)CC3)CC2)c2ccccc21 (centres unmarked) [compound 932] | 25 to 100% | – | < 25% | – | – | – | – | – | M1 Activity (M1 muscarinic receptor; [8]): x (activity was measured to be greater than 5.0 μM); M4 Activity (M4 muscarinic receptor; [9]): x (activity was measured to be greater than 5.0 μM) |
| CCOC(=O)N1C2CCC1CC(N1CCC3(CC1)CN(C(=O)OC)c1ccc(F)cc13)C2 (centres unmarked) [compound 167] | – | – | – | – | xxx (activity was measured to be less than 0.1 μM) | 65 to 85% | xx (activity was measured to be between 0.1 μM and 1.0 μM) | > 85% | – |

From patent US7786141B2 (Vertex Pharmaceuticals Incorporated, priority 2004, dated 2010)
